The target in this test is α-amylase. As to the kind of experiment: DNS colorimetric α-amylase assay, starch substrate, absorbance at […] nm. In kind it is biochemical.

In brackets after ≈: the same amount, converted by molar mass.

For `CCCN(CCC)S(=O)(=O)c1ccc(-c2nnc(SCN3C(=O)c4ccccc4C3=O)o2)cc1` [PESMP, 4-(5-((1,3-Dioxoisoindolin-2-yl)methylthio)-1,3,4-oxadiazol-2-yl)-N,N-dipropylbenzene-sulfonamide], the “IC50 Value” turned out to be 10.60 ± 0.16 mg/L (≈ 21.2 µM).
